Where “and” joins values, the source holds several entries; their conditions need not be identical. Equal entries are not always repeated. A value given as a limit tells only on which side of the number the result lay.

The results in this text go back to patent EP0066918A1 (THE PROCTER & GAMBLE COMPANY, priority 1981, dated 1982).

Series [1] deals with aspirin-induced gastric lesions. Put plainly: animal or person. Format: in vivo, Male Sprague-Dawley rats. To be noted: for inhibition in vivo at 125 mg/kg: Rattus norvegicus, po, 2 h, purine derivative dose 125 mg/kg with 125 mg/kg aspirin, read-out: % Reduction in Lesions; for minimization of gastric damage (statement in words): general statement in the description, high dosage = anti-inflammatory:purine ratios from about 1:1.5 to about 1:4; for reduction in lesions / lesion reduction: both 125 mg/kg. On the procedure:
For these experiments, the test materials were suspended in 0.5% methyl cellulose aqueous solutions. The pH of the aspirin solution was 2.7 and the pH of the solutions containing the purine materials was adjusted to pH 2.7 using HC1.
Male Sprague-Dawley rats were obtained (approximate weight = 150 grams each) and allowed to acclimate for at least 4 days. During this period the animals were allowed Purina Rat Chow and,tap water ad libitum. The animals were food fasted about 18 hours prior to dosing; during this period water was provided ad libitum.
The rats were dosed by oral gavage using a #8 catheter attached to a 1 cc syringe. The animals were dosed and sacrificed according to a predetermined schedule (the dosing order was determined at random prior to starting each experiment). After dosing, the animals were also water fasted.
The rats were sacrificed, either by C02 inhalation or cervical dislocation, two hours after dosing. Their stomachs were removed intact and placed on plastic-backed absorbent paper. The stomachs were then opened along the greater curvature, the fundus and esophagus were removed and the stomach was spread over a piece of white cardboard, using cotton-tipped applicators to level the rugae. The stomachs were then examined, using a dissecting microscope at 7X magnification, and the length of each lesion present was determined using a calibrated reticule.
In this table, N indicates the number of rats tested for the stated dosage.
In other experiments aspirin and adenosine were dosed at separate times.

A short description of series [2]: Toxicity (statement only, no method given). Particulars: no data given.
In series [3] the test system is occult blood loss from the G.I. tract. Put plainly: Occult blood loss from the G.I. tract of rats (Fe labeled ferrous citrate, 24 h feces collection). To be noted: Adenosine 0, oral. In kind it is in vivo, male Sprague-Dawley rats. On the procedure:
In addition to reducing macroscopic lesions in the stomach produced by aspirin ingestion, adenosine was also found to reduce occult blood loss from the G.I. tract of rats. In these experiments, male Sprague-Dawley rats were injected i.v. with […] Fe labeled ferrous citrate. Eight days after injection, feces were collected for 24 hours to establish base line data. The rats were then dosed orally with aspirin or aspirin-adenosine mixtures, as suspensions in 0.5% methylcellulose, and the feces were again collected for 24 hours. The rats were fasted during the 24-hour pre- dose period and for 2 hours after drug dosing.

For series [4], the system named is Aspirin-induced damage in dogs. Put plainly: Aspirin-induced gastric damage in dogs, endoscopy. Format: in vivo, male beagles. Particulars: avg. dose aspirin 97.8-101 mg/kg, adenosine 100 mg/kg simultaneously, cimetidine 30 mg/kg about 1 hour before. On the procedure: Fasted male beagles were orally dosed with tablets of aspirin, aspirin plus adenosine, or aspirin plus cimetidine. The aspirin and adenosine were dosed simultaneously. The cimetidine was dosed approximately 1 hour before the aspirin; the dose level of cimetidine was 5 times that needed to give a 90% reduction in acid secretion. Approximately 19 hours later, the dogs were again dosed and 4 hours later their stomachs were examined by endoscopy. The incidence of erosions was recorded and the overall gastric damage assessed subjectively, using an arbitrary grading scale.

The subject of series [5] is aspirin-induced gastric damage. Put plainly: Aspirin-induced gastric lesions in rats, adenosine injected i.p. 15 minutes prior to oral aspirin. Particulars: 125 mg/kg aspirin (p.o.) alone. In kind it is in vivo. On the procedure:
Parenteral administration of adenosine was also found to be protective against aspirin-induced gastric damage, as illustrated by the following experiment.
Rats, chosen and prepared as. above, were dosed with i.p. injections of adenosine in 0.9% sterile physiological saline solution, adjusted to pH 7 with IN NaOH. The adenosine solution was injected 15 minutes prior to an oral dose of 125 mg/kg aspirin.

For `OC[C@H]1O[C@@H](n2cnc3c2ncn2ccnc32)[C@H](O)[C@@H]1O` [1,N^6-ethenoadenosine], the inhibition in vivo at 125 mg/kg in series [1] (vs aspirin-alone control) was 50%. Moreover, the “minimization of gastric damage (statement in words)” value (from here on “minimization of gastric damage”) in series [1] was “work only at relatively high dosage levels”.
For the compound `Cn1cnc2c(ncn2[C@@H]2O[C@H](CO)[C@@H](O)[C@H]2O)c1=N` [1-methyl adenosine], the “% Reduction in Lesions” value in series [1] (purine derivative dose 25 mg/kg with 125 mg/kg aspirin, vs aspirin-alone control) was 16%.
As for `CC1(C)O[C@@H]2[C@H](O1)[C@@H](CO)O[C@H]2n1cnc2c(N)ncnc21` [2',3'-isopropylidine adenosine], the inhibition in vivo at 125 mg/kg in series [1] (vs aspirin-alone control) turned out to be 95%.
As to `Nc1ncnc2c1ncn2[C@H]1C[C@H](O)[C@@H](COP(=O)(O)O)O1` [2'-deoxy-adenosine-5'-mono-phosphate], the inhibition in vivo at 125 mg/kg in series [1] (vs aspirin-alone control) is 16%.
The same measure, in the same setting: to `Nc1ncnc2c1ncn2[C@H]1C[C@H](O)[C@@H](CO)O1` [2'-deoxyadenosine] belongs 64%; to `Nc1ncnc2c1ncn2[C@@H]1O[C@H](CO)C[C@H]1O` [3'-deoxyadenosine], -47%.
The same measure, in the same setting: to `CSC[C@H]1O[C@@H](n2cnc3c(N)ncnc32)[C@H](O)[C@@H]1O` [5'-deoxy-5'-methylthioadenosine] belongs -102%; to `Nc1ncnc2c1nnn2[C@@H]1O[C@H](CO)[C@@H](O)[C@H]1O` [8-azaadenosine], 60%.
As for `Nc1ncnc2c1nc(Br)n2[C@@H]1O[C@H](CO)[C@@H](O)[C@H]1O` [8-bromoadenosine], in series [1] (vs aspirin-alone control), the inhibition in vivo at 125 mg/kg was 76%.
On to `Nc1ncnc2nc[nH]c12` [Adenine], for which the inhibition in vivo at 125 mg/kg in series [1] (vs aspirin-alone control) was found to be 94%. In series [1], the “minimization of gastric damage” value was “does work to minimize gastrointestinal damage”. The “toxicity limits (statement in words)” value in series [2] is on record as “does not fall within the necessary toxicity limits”.
As for `Nc1ncnc2c1ncn2[C@@H]1O[C@H](COP(=O)(O)OP(=O)(O)O)[C@@H](O)[C@H]1O` [Adenosine-5'-diphosphate (ADP), adenosine-5'-diphosphate], the inhibition in vivo at 125 mg/kg in series [1] (vs aspirin-alone control) is 50%. Moreover, the “minimization of gastric damage” value in series [1] is reported as “work only at relatively high dosage levels”.
Turning to `Nc1ncnc2c1ncn2[C@@H]1O[C@H](COP(=O)(O)OP(=O)(O)OP(=O)(O)O)[C@@H](O)[C@H]1O` [Adenosine-5'-triphosphonate (ATP), adenosine-5'-triphosphate], in series [1], the “minimization of gastric damage” value is “work only at relatively high dosage levels”.
In the case of `Nc1c2ncn([C@@H]3O[C@H](CO)[C@@H](O)[C@H]3O)c2nc[n+]1[O-]` [Adenosine-N^1-oxide, adenosine-N^1-oxide], in series [1] (vs aspirin-alone control), the inhibition in vivo at 125 mg/kg was determined as 75%.
Same read-out and setting: the value for `NC(=O)NC1NC(=O)NC1=O` (stereo not drawn) [Allantoin] was 30%.
On to `CC(=O)Oc1ccccc1C(=O)O` [Aspirin, acetylsalicylic acid], for which the “Lesion Length (mm) ± SEM” value in series [1] (125 mg/kg aspirin alone (control), oral, 2 h after dosing) is 30.4 ±3.1 mm. The “Blood Loss in 24 hrs. (µl) + S.D.” value in series [3] (Aspirin 125 mg/kg) was 158 ± 46 µL; in series [3] (Aspirin 300 mg/kg), 198 ± 131 µL and 224 ± 98 µL. Also, in series [4] (arbitrary subjective grading scale), the “Avg. Damage Grade” value turned out to be 16. In addition, the “Avg. In-cidence of Erosions” value in series [4] (oral tablets, two doses about 19 h apart, endoscopy 4 h after second) amounted to 80%. Moreover, the “Average Lesion Length (mm) ±SEM” value in series [5] stood at 36.1 ±10.8 mm.
With `Nc1nc2c(ncn2[C@@H]2O[C@H](CO)[C@@H](O)[C@H]2O)c(=O)[nH]1` [Guanosine], in series [1] (vs aspirin-alone control), the inhibition in vivo at 125 mg/kg was determined as 41%. In addition, the “minimization of gastric damage” value in series [1] is recorded as “not useful”.
For `O=c1[nH]cnc2nc[nH]c12` [Hypoxanthine], the inhibition in vivo at 125 mg/kg in series [1] (vs aspirin-alone control) was 13%.
Consider `OC[C@H]1O[C@@H](n2cnc3c(O)ncnc32)[C@H](O)[C@@H]1O` [Inosine], for which, in series [1] (vs aspirin-alone control), the inhibition in vivo at 125 mg/kg worked out at 18%.
For the compound `Nc1ncnc2c1ncn2[C@@H]1O[C@H](CO)[C@@H](O)[C@H]1O` [adenosine], the results for the reduction in lesions in series [1] (adenosine dosed 10 minutes after aspirin) and in series [1] (adenosine dosed simultaneously with aspirin) were below 10% and “about 90%”, respectively. The lesion reduction result in series [1] (adenosine dosed 10 minutes prior to aspirin) is “about 60%”; in series [1] (adenosine dosed 30 minutes prior to aspirin) it was “about 45%”.
Consider `Nc1nc2nc[nH]c2c(=O)[nH]1` [guanine], for which the “minimization of gastric damage” value in series [1] is on record as “not useful”.
